The subject of experiment [1] is ALK wild-type (WT) hairpin oligonucleotide (DNA, hairpin) AAATTCAACCACCAGAACATTTTTATGTTCTGGTGGTTGAATTT
In words: SPR (Biacore X100), kinetic fit with mass transfer. As to conditions: 150 mM NaCl; HBS-EP: 10 mM HEPES, 3 mM EDTA, 0.005% P20, 0.1% DMSO, 25 °C.

In experiment [2] the test system is F1174L-mutated ALK hairpin oligonucleotide (DNA, hairpin) AAATTAAACCACCAGAACATTTTTATGTTCTGGTGGTTTAATTT
The experiment in a line: SPR (Biacore X100), kinetic fit with mass transfer. As to conditions: 150 mM NaCl; HBS-EP: 10 mM HEPES, 3 mM EDTA, 0.005% P20, 0.1% DMSO, 25 °C.

From PMC8483358 (2021) come the findings set out here.

Each structure is given as a SMILES string.

On to `CC(=O)Nc1cc(C(=O)Nc2cc(C(=O)Nc3cc(C(=O)Nc4cc(C(=O)NCCC(=O)Nc5cc(C(=O)Nc6cc(C(=O)Nc7cc(C(=O)NCCCC(=O)Nc8cn(C)c(C(=O)Nc9cn(C)c(C(=O)NCCC(=O)Nc%10cn(C)c(C(=O)Nc%11cn(C)c(C(=O)Nc%12cc(C(=O)Nc%13ccc%14cc(C(=O)NCCCN(C)C)[nH]c%14c%13)n(C)c%12)n%11)n%10)n9)n8)n(C)c7)n(C)c6)n(C)c5)n(C)c4)n(C)c3)n(C)c2)n(C)c1`, for which the KD in experiment [1] was 58.20 ± 1.62 × 10^-8 M; in experiment [2], 6.37 ± 0.41 × 10^-8 M.
